From ChEMBL document CHEMBL4229455, “Synthesis and anticancer activity of novel bisindolylhydroxymaleimide derivatives with potent GSK-3 kinase inhibition” (Bioorg Med Chem, 2018)

Experiments:
CAKI-1 = experiment: Cytotoxicity against human Caki1 cells assessed as cell growth at 10 uM after 48 hrs by SRB assay relative to control; assay type: functional; conditions: CAKI-1, 48 h, read-out: Activity
T47D = experiment: Cytotoxicity against human T47D cells assessed as cell growth at 10 uM after 48 hrs by SRB assay relative to control; assay type: functional; conditions: read-out: Activity
MDA-MB-231 = experiment: Cytotoxicity against human MDA-MB-231 cells assessed as cell growth at 10 uM after 48 hrs by SRB assay relative to control; assay type: functional; conditions: MDA-MB-231, 48 h, read-out: Activity
MOLT-4 = experiment: Cytotoxicity against human MOLT4 cells assessed as cell growth at 10 uM after 48 hrs by SRB assay relative to control; assay type: functional; conditions: MOLT-4, 48 h, read-out: Activity
IGROV-1 = experiment: Cytotoxicity against human IGROV1 cells assessed as cell growth at 10 uM after 48 hrs by SRB assay relative to control; assay type: functional; conditions: IGROV-1, 48 h, read-out: Activity
OVCAR-3 = experiment: Cytotoxicity against human OVCAR3 cells assessed as cell growth at 10 uM after 48 hrs by SRB assay relative to control; assay type: functional; conditions: OVCAR-3, 48 h, read-out: Activity
[1] = molecular target: Serine/threonine-protein kinase pim-1 (Homo sapiens, UniProt P11309); experiment: Inhibition of recombinant full length human PIM1 expressed in bacteria using histone H1 as substrate in presence of [gamma-33P]ATP
[2] = molecular target: T1, Serine/threonine-protein kinase haspin (Homo sapiens) (UniProt Q8TF76); experiment: Inhibition of recombinant human haspin kinase domain expressed in bacteria assessed as residual activity at 10 uM using histone H3 (1 to 21 residues) peptide as substrate in presence of [gamma-33P]ATP
T1 sequence (whole entry): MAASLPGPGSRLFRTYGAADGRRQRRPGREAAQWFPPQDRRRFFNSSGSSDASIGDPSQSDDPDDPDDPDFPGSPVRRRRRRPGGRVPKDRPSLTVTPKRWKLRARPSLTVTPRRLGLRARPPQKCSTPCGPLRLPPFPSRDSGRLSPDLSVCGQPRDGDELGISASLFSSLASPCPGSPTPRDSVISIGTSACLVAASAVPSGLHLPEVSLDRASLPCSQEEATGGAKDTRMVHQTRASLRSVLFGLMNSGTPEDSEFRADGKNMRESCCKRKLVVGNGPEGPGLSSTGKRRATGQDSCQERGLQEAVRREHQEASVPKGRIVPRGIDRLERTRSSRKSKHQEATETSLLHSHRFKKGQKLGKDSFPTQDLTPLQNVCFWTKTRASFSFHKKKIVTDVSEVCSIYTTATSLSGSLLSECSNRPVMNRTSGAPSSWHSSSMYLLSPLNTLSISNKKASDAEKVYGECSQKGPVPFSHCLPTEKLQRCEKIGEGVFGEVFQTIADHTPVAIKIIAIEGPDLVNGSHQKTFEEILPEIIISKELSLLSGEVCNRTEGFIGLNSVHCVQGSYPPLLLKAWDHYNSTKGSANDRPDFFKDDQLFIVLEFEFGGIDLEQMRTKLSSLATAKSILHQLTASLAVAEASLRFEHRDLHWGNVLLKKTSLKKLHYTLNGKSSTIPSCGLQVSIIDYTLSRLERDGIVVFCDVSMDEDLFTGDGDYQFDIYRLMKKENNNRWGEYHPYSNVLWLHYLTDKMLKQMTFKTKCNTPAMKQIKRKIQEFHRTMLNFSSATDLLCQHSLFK

OVCAR-4 = experiment: Cytotoxicity against human OVCAR4 cells assessed as cell growth at 10 uM after 48 hrs by SRB assay relative to control; assay type: functional; conditions: OVCAR-4, 48 h, read-out: Activity
786-0 = experiment: Cytotoxicity against human 786-O cells assessed as cell growth at 10 uM after 48 hrs by SRB assay relative to control; assay type: functional; conditions: 786-0, 48 h, read-out: Activity
SF-295 = experiment: Cytotoxicity against human SF295 cells assessed as cell growth at 10 uM after 48 hrs by SRB assay relative to control; assay type: functional; conditions: SF-295, 48 h, read-out: Activity
K562 = experiment: Cytotoxicity against human K562 cells assessed as cell growth at 10 uM after 48 hrs by SRB assay relative to control; assay type: functional; conditions: K562, 48 h, read-out: Activity
NCI-H522 = experiment: Cytotoxicity against human NCI-H522 cells assessed as cell growth at 10 uM after 48 hrs by SRB assay relative to control; assay type: functional; conditions: NCI-H522, 48 h, read-out: Activity
DU-145 = experiment: Cytotoxicity against human DU145 cells assessed as cell growth at 10 uM after 48 hrs by SRB assay relative to control; assay type: functional; conditions: DU-145, 48 h, read-out: Activity
SK-MEL-2 = experiment: Cytotoxicity against human SK-MEL-2 cells assessed as cell growth at 10 uM after 48 hrs by SRB assay relative to control; assay type: functional; conditions: SK-MEL-2, 48 h, read-out: Activity
SNB-19 = experiment: Cytotoxicity against human SNB19 cells assessed as cell growth at 10 uM after 48 hrs by SRB assay relative to control; assay type: functional; conditions: SNB-19, 48 h, read-out: Activity
SF-539 = experiment: Cytotoxicity against human SF539 cells assessed as cell growth at 10 uM after 48 hrs by SRB assay relative to control; assay type: functional; conditions: SF-539, 48 h, read-out: Activity
ACHN = experiment: Cytotoxicity against human ACHN cells assessed as cell growth at 10 uM after 48 hrs by SRB assay relative to control; assay type: functional; conditions: read-out: Activity
[3] = molecular target: Cyclin-dependent kinase 5/CDK5 activator 1 (Homo sapiens, UniProt Q00535); experiment: Inhibition of recombinant full length human CDK5/p25 expressed in bacteria using histone H1 as substrate in presence of [gamma-33P]ATP
Aurora kinase B = Aurora kinase B (Homo sapiens, UniProt Q96GD4); experiment: Inhibition of recombinant full length human aurora B expressed in baculovirus infected Sf9 insect cells using MBP as substrate in presence of [gamma-33P]ATP
HOP-92 = experiment: Cytotoxicity against human HOP92 cells assessed as cell growth at 10 uM after 48 hrs by SRB assay relative to control; assay type: functional; conditions: HOP-92, 48 h, read-out: Activity
EKVX = experiment: Cytotoxicity against human EKVX cells assessed as cell growth at 10 uM after 48 hrs by SRB assay relative to control; assay type: functional; conditions: read-out: Activity
UACC-257 = experiment: Cytotoxicity against human UACC257 cells assessed as cell growth at 10 uM after 48 hrs by SRB assay relative to control; assay type: functional; conditions: UACC-257, 48 h, read-out: Activity

Cyclin-dependent kinase 5/CDK5 activator 1, sequence (Q00535 whole entry): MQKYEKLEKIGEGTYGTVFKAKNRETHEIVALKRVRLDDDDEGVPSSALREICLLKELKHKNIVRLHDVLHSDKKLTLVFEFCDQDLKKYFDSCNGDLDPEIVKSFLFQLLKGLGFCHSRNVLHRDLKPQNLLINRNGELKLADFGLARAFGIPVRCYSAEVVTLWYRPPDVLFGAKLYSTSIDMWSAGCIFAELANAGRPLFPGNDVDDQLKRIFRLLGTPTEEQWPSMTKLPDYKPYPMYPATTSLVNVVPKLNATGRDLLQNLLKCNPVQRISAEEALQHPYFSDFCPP
Cyclin-dependent kinase 5/CDK5 activator 1, sequence (Q15078 whole entry, further chain): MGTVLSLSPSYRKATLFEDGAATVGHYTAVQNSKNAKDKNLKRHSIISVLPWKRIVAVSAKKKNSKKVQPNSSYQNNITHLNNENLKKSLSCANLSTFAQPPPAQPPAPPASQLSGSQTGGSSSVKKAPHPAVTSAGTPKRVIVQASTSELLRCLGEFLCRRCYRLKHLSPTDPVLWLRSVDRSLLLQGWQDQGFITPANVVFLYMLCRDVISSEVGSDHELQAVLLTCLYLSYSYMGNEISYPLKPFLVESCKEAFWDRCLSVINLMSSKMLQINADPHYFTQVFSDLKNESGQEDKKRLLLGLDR
Aurora kinase B, sequence (Q96GD4 whole entry): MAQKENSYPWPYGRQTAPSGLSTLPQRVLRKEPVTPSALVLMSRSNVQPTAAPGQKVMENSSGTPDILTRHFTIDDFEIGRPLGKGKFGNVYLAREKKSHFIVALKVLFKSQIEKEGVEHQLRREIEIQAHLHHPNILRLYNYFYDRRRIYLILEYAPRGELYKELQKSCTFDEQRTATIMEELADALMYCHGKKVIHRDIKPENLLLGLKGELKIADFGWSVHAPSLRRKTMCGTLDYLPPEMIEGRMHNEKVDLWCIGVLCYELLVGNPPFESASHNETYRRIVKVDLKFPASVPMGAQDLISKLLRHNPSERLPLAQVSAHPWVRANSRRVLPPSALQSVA
Serine/threonine-protein kinase pim-1, sequence (P11309 whole entry, the tested form may be a part): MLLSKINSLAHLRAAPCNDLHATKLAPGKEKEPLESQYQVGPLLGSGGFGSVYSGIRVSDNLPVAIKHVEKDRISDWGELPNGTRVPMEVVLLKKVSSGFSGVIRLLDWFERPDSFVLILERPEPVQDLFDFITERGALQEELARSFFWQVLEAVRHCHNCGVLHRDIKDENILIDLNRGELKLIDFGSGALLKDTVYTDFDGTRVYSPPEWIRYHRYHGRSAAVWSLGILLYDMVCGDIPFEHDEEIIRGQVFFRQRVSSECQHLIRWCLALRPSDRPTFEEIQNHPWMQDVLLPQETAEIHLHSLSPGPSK

Structure (SMILES): Cn1cc(C2=C(c3c[nH]c4ccccc34)C(=O)N(O)C2=O)c2ccccc21
- growth at 10 µM (CAKI-1): 61.5%
- growth at 10 µM (T47D): 60.9%
- growth at 10 µM (MDA-MB-231): 59.5%
- growth at 10 µM (MOLT-4): 79%
- growth at 10 µM (IGROV-1): 83%
- growth at 10 µM (OVCAR-3): 84.7%
- IC50 [1]: 5 µM
- Activity [2]: 112%
- growth at 10 µM (OVCAR-4): 103%
- growth at 10 µM (786-0): 82%
- growth at 10 µM (SF-295): 88.8%
- growth at 10 µM (K562): 50.2%
- growth at 10 µM (NCI-H522): 56.3%
- growth at 10 µM (DU-145): 100%
- growth at 10 µM (SK-MEL-2): 76.4%
- growth at 10 µM (SNB-19): 97.5%
- growth at 10 µM (SF-539): 95.5%
- growth at 10 µM (ACHN): 77.9%
- IC50 [3]: > 10 µM
- IC50 (Aurora kinase B): > 10 µM

Structure (SMILES): N#CCCCCCn1cc(C2=C(c3cn(CCCCCC#N)c4ccccc34)C(=O)NC2=O)c2ccccc21
- growth at 10 µM (CAKI-1): 82.5%
- growth at 10 µM (T47D): 67.6%
- growth at 10 µM (MDA-MB-231): 81.4%
- growth at 10 µM (IGROV-1): 124%
- growth at 10 µM (OVCAR-3): 72.7%
- IC50 [1]: > 10 µM
- Activity [2]: 134%
- growth at 10 µM (OVCAR-4): 81.2%
- growth at 10 µM (SF-295): 66.2%
- growth at 10 µM (HOP-92): 142%
- growth at 10 µM (NCI-H522): 88.7%
- growth at 10 µM (DU-145): 100%
- growth at 10 µM (EKVX): 86.5%
- growth at 10 µM (SK-MEL-2): 96.5%
- growth at 10 µM (SF-539): 53.7%
- growth at 10 µM (ACHN): 87%
- growth at 10 µM (UACC-257): 136%
- IC50 [3]: > 10 µM
- IC50 (Aurora kinase B): > 10 µM

Structure (SMILES): Cn1cc(C2=C(c3cn(C)c4ccccc34)C(=O)N(O)C2=O)c2ccccc21
- growth at 10 µM (CAKI-1): 90.1%
- growth at 10 µM (T47D): 96.4%
- growth at 10 µM (MDA-MB-231): 98%
- growth at 10 µM (MOLT-4): 101%
- growth at 10 µM (IGROV-1): 109%
- growth at 10 µM (OVCAR-3): 111%
- IC50 [1]: > 10 µM
- Activity [2]: 118%
- growth at 10 µM (OVCAR-4): 103%
- growth at 10 µM (786-0): 103%
- growth at 10 µM (SF-295): 104%
- growth at 10 µM (HOP-92): 80.8%
- growth at 10 µM (K562): 100%
- growth at 10 µM (NCI-H522): 98.4%
- growth at 10 µM (DU-145): 123%
- growth at 10 µM (SK-MEL-2): 102%
- growth at 10 µM (SNB-19): 102%
- growth at 10 µM (SF-539): 107%
- growth at 10 µM (ACHN): 101%
- growth at 10 µM (UACC-257): 88.3%
- IC50 [3]: > 10 µM
- IC50 (Aurora kinase B): > 10 µM

Structure (SMILES): CC(C)n1cc(C2=C(c3c[nH]c4ccccc34)C(=O)N(O)C2=O)c2ccccc21
- growth at 10 µM (CAKI-1): 78.3%
- growth at 10 µM (T47D): 86.7%
- growth at 10 µM (MDA-MB-231): 89.5%
- growth at 10 µM (MOLT-4): 77%
- growth at 10 µM (IGROV-1): 111%
- growth at 10 µM (OVCAR-3): 92.7%
- IC50 [1]: > 10 µM
- Activity [2]: 123%
- growth at 10 µM (OVCAR-4): 111%
- growth at 10 µM (786-0): 77.9%
- growth at 10 µM (SF-295): 99.7%
- growth at 10 µM (K562): 86.3%
- growth at 10 µM (NCI-H522): 76.4%
- growth at 10 µM (DU-145): 107%
- growth at 10 µM (SK-MEL-2): 86.8%
- growth at 10 µM (SNB-19): 111%
- growth at 10 µM (SF-539): 97.3%
- growth at 10 µM (ACHN): 99.6%
- IC50 [3]: > 10 µM
- IC50 (Aurora kinase B): > 10 µM
